# Reference: patent publication US20050192245A1, “Medicinal composition for treating arteriosclerosis” (SANKYO COMPANY, LIMITED, priority 2002, published 2005)
# System: atherogenic lesions of the right femoral artery (arteriosclerosis)
# Assay: Atherogenic lesions in cholesterol diet-loaded rabbits with Nylon thread-induced chronic endothelial damage (right femoral artery)
# Assay type: in vivo, male New Zealand White rabbits
# Settings: oral, 8 weeks
# Description: A test was conducted in which male New Zealand White rabbits (body weights: 1.0 to 1.5 kg) were loaded for 10 weeks with a cholesterol diet (0.5% cholesterol, 3% peanut oil and 3% coconut oil) in the amounts indicated below. The animals were fed 40 g for the first two weeks, 50 g for the next four weeks, and 60 g for the final four weeks. Two weeks after cholesterol diet loading, a Nylon thread was aseptically inserted from the right femoral artery to the vicinity of the diaphragm to induce chronic endothelial damage in the abdominal aorta and right femoral artery. The Nylon thread was immobilized for 8 weeks at the insertion site. Following surgery to insert the Nylon thread, the animals were grouped so that the average values of serum total cholesterol, triglycerides, platelet aggregation and body weight of each group were nearly equal, followed by oral administration of the ADP receptor antagonist and the ACAT inhibitor either alone or combined. After necrotomy of the animals 8 weeks after administration, the right femoral arteries were excised and the ratio of the surface area covered by atherogenic lesions was calculated. After exposing the right femoral artery (by 1 cm from the branch of the iliac artery), it was photographed with a digital camera (COOLPX990, Nikon) followed by measurement of the surface area of the lumen and the surface area covered by atherogenic lesions using an image analyzer, and calculation of the ratio of the surface area covered by atherogenic lesions relative to the surface area of the aorta lumen as a percentage. In addition, a section 1 cm from the branch of the iliac artery on the side of the femoral artery was cut out and after fixing in methanol-carnoy solution, was embedded in a paraffin block. After slicing into thin sections, the sections were immunostained using Elastica-Masson stain and anti-human α-actin antibody (1A4) followed by calculating the degree of medial intimal thickness and the smooth muscle cell occupancy rate using an image analyzer. In the table, Compound A represent 2-acetoxy-5-(α-cyclopropylcarbonyl-2-fluorobenzyl)-4,5,6,7-tetrahydrothieno[3,2-c]pyridine, and Compound B represents sulfate of N-(1-octyl-5-carboxymethyl-4,6-dimethylindolin-7-yl)-2,2-dimethylpropanamide.
Structure (SMILES),Medial intimal thickness (%) (Compound A 1 mg/kg),Ratio of lesion surface area (%) (Compound A 1 mg/kg),"Smooth muscle cell occupancy rate in lesion at 1 mg/kg (Oryctolagus cuniculus, 1344 h, Compound A 1 mg/kg)",Medial intimal thickness (%) (Compound B 3 mg/kg),Ratio of lesion surface area (%) (Compound B 3 mg/kg),Smooth muscle cell occupancy rate (%) (Compound B 3 mg/kg)
"CC(=O)Oc1cc2c(s1)CCN(C(C(=O)C1CC1)c1ccccc1F)C2 (stereo not drawn) [Compound A, 2-acetoxy-5-(α-cyclopropylcarbonyl-2-fluorobenzyl)-4,5,6,7-tetrahydrothieno[3,2-c]pyridine]",275.4 ± 153.4%,47.2 ± 14.2%,5.5 ± 1.5%,,,
"CCCCCCCCN1CCc2c(C)c(CC(=O)O)c(C)c(NC(=O)C(C)(C)C)c21.O=S(=O)(O)O [Compound B, sulfate of N-(1-octyl-5-carboxymethyl-4,6-dimethylindolin-7-yl)-2,2-dimethylpropanamide]",,,,60.0 ± 34.2 %,40.6 ± 19.8 %,25.6 ± 14.8 %
